# According to US11865126B2, “Method for treating anxiety disorders, headache disorders, and eating disorders with psilocybin” (priority 2019, dated 2024):
# Tested on: healthy subjects
# Assay: Symptom Checklist-90 item (SCL-90)
# Assay type: in vivo, human
# Source text: In some embodiments, the Symptom Checklist-90 item (SCL-90) questionnaire is used to evaluate the safety and/or efficacy of psilocybin. The SCL-90 is a relatively brief self-report psychometric instrument designed to evaluate a broad range of psychological problems and symptoms of psychopathology. In some embodiments, the SCL-90 is used to assess somatization, obsessive-compulsive behaviors, interpersonal sensitivity, depression, anxiety, hostility, phobic anxiety, paranoid ideation, and psychoticism of a subject treated according to the methods of the disclosure. The 90 items in the questionnaire are scored on a 5-point Likert scale, indicating the rate of occurrence of the symptom during the time reference. In some embodiments, after treating according to the methods of the disclosure, a subject's SCL-90 score decreases by about 5% to about 100%, for example, by about 5%, about 10%, about 15%, about 20%, about 25%, about 30%, about 35%, about 40%, about 45%, about 50%, about 55%, about 60%, about 65%, about 70%, about 75%, about 80%, about 85%, about 90%, about 95%, or about 100%.
# The Neuroticism Extraversion Openness-Five Factor Inventory (NEO-FFI) and Symptom Checklist-90 Item (SCL-90) were administered. Details of the MMRM applied to the change from baseline scores for the NEO-FFI and SCL-90 are provided below in Table 28.
structure (smiles),measurement,setting,value
CN(C)CCc1c[nH]c2cccc(OP(=O)(O)O)c12 [psilocybin],"SCL-90 - somatisation change from baseline, difference Psilocybin 10 mg - Placebo",Day 7,0.1
same,"SCL-90 - somatisation change from baseline, difference Psilocybin 25 mg - Placebo",Day 7,0.1
same,"SCL-90 - somatisation change from baseline, difference Psilocybin (25 mg-10 mg)",Day 7,−0.0
same,"SCL-90 anger hostility change from baseline, difference Psilocybin 10 mg - Placebo",Day 7,−0.0
same,"SCL-90 anger hostility change from baseline, difference Psilocybin 25 mg - Placebo",Day 7,−0.0
same,"SCL-90 anger hostility change from baseline, difference Psilocybin (25 mg-10 mg)",Day 7,0.0
same,"SCL-90 anxiety change from baseline, difference Psilocybin 10 mg - Placebo",Day 7,−0.0
same,"SCL-90 anxiety change from baseline, difference Psilocybin 25 mg - Placebo",Day 7,0.0
same,"SCL-90 anxiety change from baseline, difference Psilocybin (25 mg-10 mg)",Day 7,0.0
same,"SCL-90 depression change from baseline, difference Psilocybin 10 mg - Placebo",Day 7,0.0
same,"SCL-90 depression change from baseline, difference Psilocybin 25 mg - Placebo",Day 7,0.0
same,"SCL-90 depression change from baseline, difference Psilocybin (25 mg-10 mg)",Day 7,−0.0
same,"SCL-90 interpersonal sensitivity change from baseline, difference Psilocybin 10 mg - Placebo",Day 7,−0.0
same,"SCL-90 interpersonal sensitivity change from baseline, difference Psilocybin 25 mg - Placebo",Day 7,0.0
same,"SCL-90 interpersonal sensitivity change from baseline, difference Psilocybin (25 mg-10 mg)",Day 7,0.1
same,"SCL-90 obsessive compulsive change from baseline, difference Psilocybin 10 mg - Placebo",Day 7,0.1
same,"SCL-90 obsessive compulsive change from baseline, difference Psilocybin 25 mg - Placebo",Day 7,0.1
same,"SCL-90 obsessive compulsive change from baseline, difference Psilocybin (25 mg-10 mg)",Day 7,−0.0
same,"SCL-90 paranoid ideation change from baseline, difference Psilocybin 10 mg - Placebo",Day 7,0.0
same,"SCL-90 paranoid ideation change from baseline, difference Psilocybin 25 mg - Placebo",Day 7,0.1
same,"SCL-90 paranoid ideation change from baseline, difference Psilocybin (25 mg-10 mg)",Day 7,0.1
same,"SCL-90 phobic anxiety change from baseline, difference Psilocybin 10 mg - Placebo",Day 7,−0.0
same,"SCL-90 phobic anxiety change from baseline, difference Psilocybin 25 mg - Placebo",Day 7,0.0
same,"SCL-90 phobic anxiety change from baseline, difference Psilocybin (25 mg-10 mg)",Day 7,0.0
same,"SCL-90 psychoticism change from baseline, difference Psilocybin 10 mg - Placebo",Day 7,0.0
same,"SCL-90 psychoticism change from baseline, difference Psilocybin 25 mg - Placebo",Day 7,0.0
same,"SCL-90 psychoticism change from baseline, difference Psilocybin (25 mg-10 mg)",Day 7,0.0
same,"SCL-90 - somatisation change from baseline, difference Psilocybin 10 mg - Placebo",Day 84,0.0
same,"SCL-90 - somatisation change from baseline, difference Psilocybin 25 mg - Placebo",Day 84,0.0
same,"SCL-90 - somatisation change from baseline, difference Psilocybin (25 mg-10 mg)",Day 84,0.0
same,"SCL-90 anger hostility change from baseline, difference Psilocybin 10 mg - Placebo",Day 84,−0.0
same,"SCL-90 anger hostility change from baseline, difference Psilocybin 25 mg - Placebo",Day 84,−0.0
same,"SCL-90 anger hostility change from baseline, difference Psilocybin (25 mg-10 mg)",Day 84,−0.0
same,"SCL-90 anxiety change from baseline, difference Psilocybin 10 mg - Placebo",Day 84,−0.1
same,"SCL-90 anxiety change from baseline, difference Psilocybin 25 mg - Placebo",Day 84,−0.0
same,"SCL-90 anxiety change from baseline, difference Psilocybin (25 mg-10 mg)",Day 84,0.0
same,"SCL-90 depression change from baseline, difference Psilocybin 10 mg - Placebo",Day 84,0.0
same,"SCL-90 depression change from baseline, difference Psilocybin 25 mg - Placebo",Day 84,0.0
same,"SCL-90 depression change from baseline, difference Psilocybin (25 mg-10 mg)",Day 84,0.0
same,"SCL-90 interpersonal sensitivity change from baseline, difference Psilocybin 10 mg - Placebo",Day 84,−0.1
same,"SCL-90 interpersonal sensitivity change from baseline, difference Psilocybin 25 mg - Placebo",Day 84,−0.0
same,"SCL-90 interpersonal sensitivity change from baseline, difference Psilocybin (25 mg-10 mg)",Day 84,0.0
same,"SCL-90 obsessive compulsive change from baseline, difference Psilocybin 10 mg - Placebo",Day 84,0.1
same,"SCL-90 obsessive compulsive change from baseline, difference Psilocybin 25 mg - Placebo",Day 84,0.0
same,"SCL-90 obsessive compulsive change from baseline, difference Psilocybin (25 mg-10 mg)",Day 84,−0.1
same,"SCL-90 paranoid ideation change from baseline, difference Psilocybin 10 mg - Placebo",Day 84,0.1
same,"SCL-90 paranoid ideation change from baseline, difference Psilocybin 25 mg - Placebo",Day 84,0.1
same,"SCL-90 paranoid ideation change from baseline, difference Psilocybin (25 mg-10 mg)",Day 84,0.0
same,"SCL-90 phobic anxiety change from baseline, difference Psilocybin 10 mg - Placebo",Day 84,−0.0
same,"SCL-90 phobic anxiety change from baseline, difference Psilocybin 25 mg - Placebo",Day 84,0.0
same,"SCL-90 phobic anxiety change from baseline, difference Psilocybin (25 mg-10 mg)",Day 84,0.0
same,"SCL-90 psychoticism change from baseline, difference Psilocybin 10 mg - Placebo",Day 84,−0.0
same,"SCL-90 psychoticism change from baseline, difference Psilocybin 25 mg - Placebo",Day 84,−0.0
same,"SCL-90 psychoticism change from baseline, difference Psilocybin (25 mg-10 mg)",Day 84,0.0
